Measured values published in US5545669A, “Anti-inflammatory compounds” (priority 1994, dated 1996).

Legend:
[1] = tested on: LTC4 release by human monocytes; experiment: Assay (f): stimulated eicosanoid release by human monocytes, LTC4; format: cell-based; conditions: Monocyte, 0.25 h, A23187 1 μM, 15 min
Protocol: (§1) Human Monocyte Isolation. Leukocyte-rich leukopaks obtained from Biological Specialties (Lansdale, Pa.) were collected from male volunteers who were not taking antiinflammatory drugs. Leukopaks were centrifuged (90×g for 15 min) twice to remove the platelet-rich plasma. The cell pellet was washed by centrifugation and resuspended in HBSS without Ca^2+ or Mg^2+. Histopaque 1077 was layered under the cell suspension and centrifuged at 400×g for 30 min to obtain the buffy coat. The interfacial buffy coat, containing monocytes and lymphocytes, was removed and saved. The buffy coat was washed twice with HBSS Without Ca^2+ or Mg^2+ by centrifugation. The cell pellet (4-6×10^8 cells/30 mls) was resuspended in iso-osmotic media (RPMI-1640, 10% heat inactivated fetal bovine serum (FBS), 0.2 mM L-glutamine, 2.5 mM HEPES) and layered over an equal volume of 46% Percol mixture (10X PBS/Percol; 9.25/0.75) and 54% iso-osmotic media and centrifuged for 30 min at 1000×g (Marshall and Roshak, Biochem. Cell Biol. 71: 331-339, 1993). The monocyte population located at the interface of the Percoll gradient was removed and washed twice in HBSS without Ca^2+ or Mg^2+.
(§2) Measurement of Stimuli-Induced Eicosanoid Release Monocytes (5×10^6 /ml) were incubated as a suspension in serum-free RPMI-1640 medium containing the vehicle DMSO (<1%) or drug for 30 min at 27° C. after which vehicle or stimuli was added for the indicated time. The stimulating agent is solubilized in DMSO and appropriate vehicle controls were included in all experiments. The amount of stimuli was chosen from the linear portion of a concentration versus product curve usually representing 60-80% maximal stimulation over the indicated incubation time at 37° C. (A23187, 1 μM,(15 min). The reaction was terminated by reduction of pH through addition of citric acid and centrifugation (10 min, 400×g, 4° C.). Cell viability was monitored before and after experiments using trypan blue exclusion. The cell-free media was decanted and stored at -70° C. until analyzed. Prostaglandin E2 and LTC4 were directly measured in cell-free media using enzyme immunoassay (EIA) kits purchased from Caymen Chemical Co. (Ann Arbor, Mich.). Sample or standard dilutions were made with appropriate media and analyzed in triplicate. Results were obtained by extrapolation from a standard curve prepared in the media and expressed as pg or ng/ml of sample.

[2] = tested on: PGE2 release by human monocytes; experiment: Assay (f): stimulated eicosanoid release by human monocytes, Prostaglandin E2; format: cell-based; conditions: Monocyte, 0.25 h, A23187 1 μM, 15 min
Protocol: as §1, §2

[3] = tested on: TPA-induced Mouse Ear Inflammation; experiment: Assay (g): TPA-induced mouse ear inflammation (ear edema and MPO); format: in vivo; conditions: for TPA % change in edema / change in MPO for TPA model: topically administered, doses 0.2 (dexamethasone), 0.1 (scalaradial), 0.3 (WY 50,295), dose unit not given
Protocol: (§3) Male Balb/c inbred mice were obtained from Charle River Breeding Laboratories (Kingston, N.Y.). Within a single experiment mice (22-25 g) were age-matched. These in vivo experiments typically involved use of 5-6 animals/group.
TPA (12-0-tetradecanoylphorbol 13-acetate) (Sigma Chemical Company) in acetone (4 mg/20 ml) was applied to the inner and outer surfaces of the left ear of BALB/c male mice. The thickness of both ears was then measured with a dial micrometer (Mitutoyo, Japan) at both 2 and 4 hours after treatment, and the data expressed as the change in thickness (10^-3 cm) between treated and untreated ears. […] After measuring the edema, the inflammed left ears were removed and stored at -70° C. until they were assayed for MPO (myeloperoxidase) activity where appropriate.
(§4) On the day of the assay, partially thawed ear tissues were minced and then homogenized (10% w/v) with a Tissumizer homogenizer (Tekmar Co.) in 50 mM phosphate buffer (pH 6) containing 0.5% HTAB. The tissue homogenates were taken through three cycles of freeze-thaw, followed by brief sonication (10 sec). The method of Bradley et al. was used with modifications as described. […] Supernatant MPO activity was quantified kinetically (change in absorbance measured over 3 min, sampled at 15-sec intervals) using a Beckman DU-7 spectrophotometer and a Kinetics Analysis package (Beckman Instruments, Inc.). One unit of MPO activity is defined as that degrading one micromole of peroxide per minute at 25° C.
Statistical analysis was done using Student's "t" test.

[4] = tested on: Arachidonic acid induced ear inflammation; experiment: Assay (h): Arachidonic acid induced ear inflammation (ear edema and MPO); format: in vivo, mouse; conditions: for effect in the AA ear model (in words): at concentrations which were effective in the TPA ear model
Protocol: as §3, §4
Arachidonic acid is dissolved in acetone (ling/ear) to the left ear of BALB/c male mice. The thickness of both ears was measured with a constant pressure thickness guage 1 hour after treatment and the data expressed as the change in thickness between treated and untreated ears. Test compounds or vehicle are given at the time of AA applciation. The inflammatory cell infiltration is measured by MPO activity as described above in the TPA ear edema assay. After the edema measurements are made, the inflamed ears are removed and assayed for MPO activity.

[5] = topically administered, doses 0.2 (dexamethasone), 0.1 (scalaradial), 0.3 (WY 50,295), dose unit not given

Row | IC50 [1] [µM] | IC50 [2] [µM] | Compound | effect in the AA ear model (in words) [4] | AA change in edema [4, 5] [%] | TPA % change in edema [3] [%] | other results
1 | 2 | > 30 | O=C(O)c1ccccc1Oc1ccc(C(F)(F)F)cc1NS(=O)(=O)c1ccc2ccccc2c1 [Example 3, 2-[2-(2-Naphthylsulfonamido)-4-trifluoromethylphenoxy]benzoic acid] |  |  |  | 
2 | 1 | > 100 | O=C(O)c1ccccc1Oc1ccccc1NS(=O)(=O)c1cc(C(F)(F)F)cc(C(F)(F)F)c1 [Example 10, 2-[2-[3,5-Bis(trifluoromethyl)phenylsulfonamido]phenoxy]benzoic acid] |  |  |  | 
3 | 1 | 10 to 20 | CCCCCCCCS(=O)(=O)Nc1ccccc1Oc1ccccc1C(=O)O [Example 11, 2-[2-(Octylsulfonamido)phenoxy]benzoic acid] |  |  |  | 
4 | 1 | > 30 | Cc1ccc(Oc2ccccc2C(=O)O)c(NS(=O)(=O)c2cc(C(F)(F)F)cc(C(F)(F)F)c2)c1 [Example 12, 2-[2-[3,5-bis(Trifluoromethyl)phenylsulfonamido]-4-methylphenoxy]benzoic acid] |  |  |  | 
5 | 0.05 | > 3 | CCC(C)(C)c1ccc(Oc2ccc(C(F)(F)F)cc2NS(=O)(=O)c2cc(C(F)(F)F)cc(C(F)(F)F)c2)c(C(=O)O)c1 [Example 17, 2-[2-[3,5-Bis(trifluoromethyl)phenyl]sulfonamido-4-trifluoromethylphenoxy]-5-(1,1-dimethylpropyl)benzoic acid] |  |  |  | 
6 |  |  | CN(c1cc(C(F)(F)F)ccc1Oc1ccccc1C(=O)O)S(=O)(=O)c1cc(C(F)(F)F)cc(C(F)(F)F)c1 [Example 27, 2-[2-[3,5-bis(Trifluoromethyl)phenyl-N-methylsulfonamido]-4-trifluoromethylphenoxy]benzoic acid] |  |  |  | inhibition in the MPO assay ([3]; mouse ear inflammation, MPO): positive inhibition; response in the Edema aspects of this animal model ([3]; mouse ear inflammation, edema): not a significant response
7 |  |  | C[C@H](C(=O)O)c1ccc2cc(OCc3ccc4ccccc4n3)ccc2c1 [WY 50,295] | strongly inhibits inflammation | -50 | -18 | change in MPO for TPA model [3]: -36
8 |  |  | C[C@@H]1C[C@H]2[C@@H]3CCC4=CC(=O)C=C[C@]4(C)[C@@]3(F)[C@@H](O)C[C@]2(C)[C@@]1(O)C(=O)CO [dexamethasone] | little or no effect | -10 | -50 | change in MPO for AA [4, 5]: 0; change in MPO for TPA model [3]: -54
9 |  |  | CC(=O)O[C@H]1C[C@@H]2[C@@]3(C)CCCC(C)(C)[C@@H]3CC[C@@]2(C)[C@@H]2CC=C(C=O)[C@H](C=O)[C@@]12C [scalaradial] | little or no effect | -11 | -46 | 
